We go through 10 compounds from US5158963A, “1-4-dihydropyridine derivative, process for preparing the same and pharmaceutical composition containing the same” (Kaken Pharmaceutical Co., Ltd., priority 1989, dated 1992).

The test system of test [1] is tonic extensive convulsion (maximal electroshock-induced seizures). In words: Activity against maximal electroshock-induced seizures in mice. In kind it is in vivo, mouse (Slc:ddy male mice). The conditions noted are these: oral. The text has this:
In each group six Slc: ddy male mice weighing 26 to 31 g (5 weeks) were employed. Sixty minutes after oral administration of a test compound, corneal electrodes which were wet by physiological saline were contacted with both eyes of a mouse. Then, appearance of tonic extensive convulsion (TE) caused by electrifying under a stimulation condition of 50 mA, 1000 V and 0.2 sec by means of the apparatus of Woodburg & Davenport (made by Kyoto Keisokuki) was judged as indication.
Each of diphenylhydantoin, the compounds Nos. 2, 4, 5, 6, 7, 50, 51 and 52 of the present invention (refer Table 1, hereinafter the same) and nimodipine was suspended in a 0.5% solution of methyl cellulose to subject the test. Flunarizine was suspended in a 5% solution of gum arabic to subject the test.
In general terms: The maximal electroshock test induces tonic seizures with an electrical stimulus.

Test [2] concerns decapitation induced hypoxia. In words: Activity against decapitation induced hypoxia in mice. The class given is in vivo, mouse (Slc:ddy male mice). The conditions noted are these: oral; for inhibition in vivo at 10 mg/kg / inhibition in vivo at 30 mg/kg / inhibition in vivo at 100 mg/kg: Mus musculus, 1 h, 60 min before decapitation, duration of gasping vs control, read-out: Inhibition rate. On the procedure: In each group five Slc:ddy male mice weighing 20 to 22 g (4 weeks) were employed. Sixty minutes after oral administration of a test compound, mice were decapitated with a guillotine. After the decapitation, duration of gasping of head was measured with a timer (CT-916 Type, made by HATTORI SEIKO CO., LTD.) gearing into the guillotine.
Each of test compound was suspended in a 0.5% solution of methyl cellulose and administered. Inhibition rate was calculated by comparing with a 0.5% aqueous solution of methyl cellulose as control. That is, the inhibition rate was calculated by the following formula. [formula]

The subject of test [3] is immobility time of forced swimming test. In words: Activity against immobility time of forced swimming test in mice. The class given is in vivo, mouse (Slc:ICR male mice). The conditions noted are these: oral. On the procedure:
In each group 6 Slc:ICR male mice weighing 25 to 32 g (5 weeks) were bred at the room temperature of 22° to 24° C. under an environment of 60% humidity for 1 week, and then the bred mice were subjected to the following test. The test was carried out by monitering action to voluntarily escape with TV camera when a mouse was put into a cylinder of which inner diameter was 11 cm wherein 17 cm of water being the temperature 25° C. as added. As indication immobility time for 6 minutes was measured. In the test mice were employed which were compulsorily swun for 6 minutes in once per day for continuous 3 day. The investigation for immobility time was carried out by measuring immobility time for 6 minutes 1 hour after oral administration of a test compound. Each of test compound was suspended in a 0.5% solution of methyl cellulose used as a control group. Significant difference is shown with the significance level (* : p<0.05) obtained by comparing data of control group by LSD method.

For a further test, the system named is blood pressure. Nature of the test: Activity for blood pressure in rats. The class given is in vivo, rat (Wister male rats). To be noted: oral; for Blood pressure: 100 mg/kg; for activity for decreasing blood pressure (in words): normal rats. On the procedure:
In each group 4 Wister male rats weighing 200 to 300 g (10 to 15 weeks) were employed. The day before a test, rats were anesthetized with eter, and a polyethylene tube was inserted into aorta abdominalis of a rat. The other end of the polyethylene tube was led out of the rat's body. The led polyethylene tube was connected with a pressure transducer (RM-85, made by Yamamoto Kohden). Blood pressure was measured under a condition of no restriction.

For test [4] the following is noted: in vivo; cited from earlier work.

Each structure is given as a SMILES string. “Also recorded” adds a separate entry of the source.

As for `C#Cc1cccc(C2C(C(=O)OCC)=C(C)NC(C)=C2C(=O)OC(C)C)c1` (stereo not shown) [Compound No. 4, 5-Ethoxycarbonyl-3-isopropoxycarbonyl-1,4-dihydro-2,6-dimethyl-4-(3-ethynylphenyl)pyridine], the “inhibitory activity against tonic extensive convulsion (share of cases)” value (“inhibitory activity” below) is given as “two thirds” in test [1] (50 mg/kg) and “five sixths” in test [1] (100 mg/kg). In addition, the inhibition in vivo at 10 mg/kg in test [2] worked out at 8.8%. In addition, in test [2], the inhibition in vivo at 30 mg/kg worked out at 25.7%. Besides, the “effect in decapitation induced hypoxia (in words)” value in test [2] is “same extent effect as that of flunarizine; also recorded: stronger effect than that of nimodipine and that of nicardipine”. Further, the “effect on the immobility time (in words)” value in test [3] (50 mg/kg), in test [3] (100 mg/kg) and in test [3] (200 mg/kg) was “showed the effect on the immobility time” throughout. The “effect on immobility time of forced swimming test (in words)” value (from here on “effect on immobility time”) in test [3] is given as “immobility time of forced swimming test reduced”. Further, the Blood pressure with blood pressure (after 15 min.) is on record as 100.1 mmHg; with blood pressure (after 30 min.) it was 97.2 mmHg; in the test with blood pressure (after 60 min.) it was 93.4 mmHg; in the test on blood pressure (after 120 min.), 90.5 mmHg. In the test on blood pressure, the “activity for decreasing blood pressure (in words)” value is on record as “very weak activity for decreasing blood pressure”.

Turning to `C#Cc1cccc(C2C(C(=O)OCC)=C(C)NC(C)=C2C(=O)OCCC)c1` (stereo not shown) [Compound No. 5, 5-Ethoxycarbonyl-3-n-propoxycarbonyl-1,4-dihydro-2,6-dimethyl-4-(3-ethynylphenyl)pyridine], in test [1] (200 mg/kg), the “inhibitory activity” value is recorded as “two thirds”. For the same compound, in test [3] (200 mg/kg), the “effect on the immobility time (in words)” value is “showed the effect on the immobility time”. The “effect on immobility time” value in test [3] was “immobility time of forced swimming test reduced”.

As for `C#Cc1cccc(C2C(C(=O)OC(C)C)=C(C)NC(C)=C2C(=O)OC(C)C)c1` [Compound No. 6, 3,5-Diisopropoxycarbonyl-1,4-dihydro-2,6-dimethyl-4-(3-ethynylphenyl)pyridine], the “inhibitory activity” value in test [1] (200 mg/kg) is “a third”. For the same compound, in test [3] (200 mg/kg), the “effect on the immobility time (in words)” value was “showed the effect on the immobility time”. Moreover, the “effect on immobility time” value in test [3] is listed as “immobility time of forced swimming test reduced”.

For the compound `C#Cc1cccc(C2C(C(=O)OC)=C(C)NC(C)=C2C(=O)OC(C)C)c1` (stereo not shown) [Compound No. 7, 5-Isopropoxycarbonyl-3-methoxycarbonyl-1,4-dihydro-2,6-dimethyl-4-(3-ethynylphenyl)pyridine], the “inhibitory activity” value in test [1] (200 mg/kg) was “a third”. Further, the “effect on the immobility time (in words)” value in test [3] (200 mg/kg) was “showed the effect on the immobility time”. Further, the “effect on immobility time” value in test [3] was “immobility time of forced swimming test reduced”.

For the compound `C#Cc1cccc(C2C(C(=O)OCC)=C(C)NC(C)=C2C(=O)OCC=C)c1` (stereo not shown) [Compound No. 50, 5-Ethoxycarbonyl-3-allyloxycarbonyl-1,4-dihydro-2,6-dimethyl-4-(3-ethynylphenyl)pyridine], the “inhibitory activity” value in test [1] (200 mg/kg) was “all cases”. The inhibition in vivo at 100 mg/kg in test [2] turned out to be 31.1%. Also, the “effect on the immobility time (in words)” value in test [3] (200 mg/kg) is “showed the effect on the immobility time”. Moreover, the “effect on immobility time” value in test [3] was “immobility time of forced swimming test reduced”.

As for `C#Cc1cccc(C2C(C(=O)OCC)=C(C)NC(C)=C2C(=O)OCC=CC)c1` (stereo not shown) [Compound No. 51, 5-Ethoxycarbonyl-3-crotyloxycarbonyl-1,4-dihydro-2,6-dimethyl-4-(3-ethynylphenyl)pyridine], the “inhibitory activity” value in test [1] (200 mg/kg) is “all cases”. In addition, in test [2], the inhibition in vivo at 30 mg/kg came to 25.7% and the inhibition in vivo at 100 mg/kg stood at 28.3%. The “effect on the immobility time (in words)” value in test [3] (200 mg/kg) is “showed the effect on the immobility time”. Besides, in test [3], the “effect on immobility time” value is listed as “immobility time of forced swimming test reduced”.

As to `C#Cc1cccc(C2C(C(=O)OC)=C(C)NC(C)=C2C(=O)OCC=C(C)C)c1` (stereo not shown) [Compound No. 52, 5-Methoxycarbonyl-3-(3-methyl-2-butenyloxycarbonyl)-1,4-dihydro-2,6-dimethyl-4-(3-ethynylphenyl)pyridine], the “inhibitory activity” value in test [1] (200 mg/kg) was “two thirds”. Also, the inhibition in vivo at 100 mg/kg in test [2] came out at 26.4%. In test [3] (200 mg/kg), the “effect on the immobility time (in words)” value was “showed the effect on the immobility time”. Further, in test [3], the “effect on immobility time” value is given as “immobility time of forced swimming test reduced”.

For the compound `COC(=O)C1=C(C)NC(C)=C(C(=O)OCCN(C)Cc2ccccc2)C1c1cccc([N+](=O)[O-])c1` (stereo not shown) [Nicardipine, 2-(N-benzyl-N-methylamino)ethyl,methyl 2,6-dimethyl-4-(3-nitrophenyl)-1,4-dihydropyridine-3,5-dicarboxylate hydro chloride, reference compound], in test [2], the inhibition in vivo at 10 mg/kg worked out at 4.2%. In addition, the inhibition in vivo at 30 mg/kg in test [2] is 6.8%. The Blood pressure in the test on blood pressure (after 15 min.) is recorded as 100.0 mmHg; with blood pressure (after 30 min.) it was 67.2 mmHg; with blood pressure (after 60 min.) it was 69.2 mmHg; in the test on blood pressure (after 120 min.), 67.2 mmHg. Moreover, in the test on blood pressure, the “activity for decreasing blood pressure (in words)” value was “strong antihypertensive activity; also recorded: remarkable activity for decreasing blood pressure”.

As to `COC(=O)C1=C(C)NC(C)=C(C(=O)OC)C1c1ccccc1[N+](=O)[O-]` [Nifedipine, dimethyl 2,6-dimethyl-4-(2-nitrophenyl)-1,4-dihydropyridine-3,5-dicarboxylate], the “vasodepressor activity and coronary vasodilator activity” value in test [4] was “strong”.

For the compound `COCCOC(=O)C1=C(C)NC(C)=C(C(=O)OC(C)C)C1c1cccc([N+](=O)[O-])c1` (stereo not shown) [Nimodipine, isopropyl, 2-methoxyethyl 2,6-dimethyl-4-(3-nitrophenyl)-1,4-dihydropyridine-3,5-dicarboxylate, reference compound], in test [1] (200 mg/kg), the “inhibitory activity” value is listed as “No inhibitory activity”. Also, in test [1], the “effect on maximal electroshock-induced seizures (in words)” value is “ineffective”. Also, in test [2], the inhibition in vivo at 10 mg/kg stood at 2.1% and the inhibition in vivo at 30 mg/kg is 9.3%. For the same compound, the “effect on immobility time” value in test [3] is reported as “ineffective; also recorded: no effect”.
